{
  "source": "patent US10428387B2",
  "about": "“Treating chronic myelogenous leukemia (CML)” (priority 2014, dated 2019)",
  "key": {"[1]": {"test_system": "mice with CML-like disease (Prkch KD)", "assay": "Prkch knockdown mice with CML-like disease", "format": "in vivo, mouse", "conditions": "IM from day 14", "experimental": "Mice with CML-like disease were generated as previously described (22). Briefly, wild-type male C57BL/6 mice 6-8 weeks of age (Jackson Laboratory) were tail-vein injected with 5-fluorouracil (200 mg/kg; Sigma) for 4 days to enrich for slow-cycling hematopoietic stem cells. At day 5, bone marrow cells were harvested and pre-incubated overnight in the presence of IL-3, IL-6 and SCF (all from PeproTech) to increase infection efficiency. At days 6 and 7, bone marrow cells were infected with a BCR-ABL retrovirus by co-sedimentation method at 3,000 rpm for 90 min at room temperature. Four hours after the second round of retroviral infection, 0.5×10^6 bone marrow cells were injected into the tail vein of syngeneic recipient mice that had been lethally irradiated (twice at 550 R). Mice were randomly allocated to each group after bone marrow transplantation."}, "[2]": {"test_system": "phosphorylated ERK1/2 in CML progenitor and stem cells", "assay": "Intracellular phosphorylated-ERK1/2 analysis by FACS", "format": "cell-based, mouse", "conditions": "5 μM IM or 10 nM trametinib, 3 hours", "protocol": "For intracellular phosphorylated-ERK1/2 analysis, bone marrow cells isolated from leukemic mice were treated with 5 μM IM or 10 nM trametinib for 3 hours, fixed in 4% paraformaldehyde (Electron Microscopy Sciences) for 10 min at 37° C., washed twice with wash buffer (0.05% BSA in 1×PBS), spun down, and resuspended in 100 μl wash buffer. Ice-cold methanol (900 μl) was added to the cells while gently vortexing to reach a final 90% for permeabilization. Samples were incubated on ice for 30 min, washed twice, and resuspended in 100 μl wash buffer. IgG control antibody (Cell signaling) was added (at 1:100 dilution) for 10 min at room temperature for blocking, followed by addition of 2 μl conjugated IgG control (Pacific Blue-conjugated IgG^XP Rabbit mAb, Cell Signaling) or phospho-ERK antibody (Pacific Blue-conjugated P-p44/42(T202/Y204)^XP Rabbit mAb, Cell Signaling). Samples were gently mixed and incubated at room temperature for 1 hour. Thirty minutes after the start of the incubation, a cocktail of primary antibodies for cell surface markers (described above) was added, incubated for a further 30 min, washed once with PBS, and incubated with the secondary antibody for 20 min on ice. Samples were then washed once with wash buffer prior to FACS analysis."}, "[3]": {"test_system": "IMSG KD K562 cells", "conditions": "representative IMSG KD K562 cell lines expressing PRKCH shRNA"}, "[4]": {"test_system": "RAF/MEK/ERK signaling (phosphorylated ERK1/2)", "assay": "Immunoblot analysis of RAF/MEK/ERK signaling in K562 cell lines", "format": "cell-based, human", "experimental": "Cells were harvested and lysed with RIPA buffer (10×, 200 mM HEPES pH 6.8, 1400 mM NaCl, 25 mM MgCl2, 25 mM CaCl2, 10% NP40, and 5% sodium deoxycholate) plus phosphatase (Sigma) and protease inhibitors (Roche). […] The PKCη antibody (Santa Cruz Technology; C-15) was diluted in 5% skim milk at 1:150. The β-actin antibody (Sigma; AC-74) diluted in 5% BSA at 1:5000. Blots were developed with Pico/Femato super signal (Sigma) and visualized using autoradiography or a Bio-Rad ChemiDoc MP Imaging System."}, "[5]": {"test_system": "K562R cells", "conditions": "K562R over-express the Src family kinase LYN; cited from earlier work"}},
  "note": "Counter-ions that a name gives are not always drawn.",
  "data": [
    {"smiles": "Cc1ccc(NC(=O)c2ccc(CN3CCN(C)CC3)cc2)cc1Nc1nccc(-c2cccnc2)n1", "note": "[IM, imatinib mesylate]", "values": [
      {"measurement": "survival of IM-treated mice after knockdown of Prkch", "setting": "[1]", "result": "markedly increased survival"},
      {"measurement": "phosphorylated ERK1/2 in CML progenitor cells", "setting": "[2]", "result": "reduced levels of phosphorylated ERK1/2"},
      {"measurement": "IM resistance after knockdown of PRKCH", "setting": "[3]", "result": "abrogated the IM resistance"},
      {"measurement": "phosphorylated MEK and ERK1/2 after IM treatment", "setting": "[4]; K562/PRKCH cells", "result": "maintained high levels"},
      {"measurement": "phosphorylation of ERK1/2 following IM treatment", "setting": "[4]; all IMSG KD K562 cell lines", "result": "sustained levels"},
      {"measurement": "phosphorylated-ERK1/2 levels after IM treatment", "setting": "[4]; control K562 cells", "result": "substantial decrease"},
      {"measurement": "sensitivity of K562R cells", "setting": "[5]", "result": "resistant"}
    ]}
  ]
}
